We go through two compounds from US20210260055A1, “TOPICAL FORMULATIONS OF DGAT1 INHIBITORS AND THEIR METHODS OF USE” (Dermavant Sciences GmbH, priority 2018, published 2021).

For orientation: Cmax means the maximum level reached in the sampled fluid or tissue. A word on the Tmax: it is the time at which the peak concentration occurs. For orientation: pIC50 means the IC50 on a negative log10 scale, so that one unit is a factor of ten. A lower pIC50 goes with a high IC50.

The structures appear in SMILES notation. pIC50: −log10 of the molar value. Like-named read-outs stand apart in the source and are kept apart here.

Series [1] is described as follows: Toxicokinetic assessment of systemic exposure in minipigs following dermal administration. Type of series: in vivo. The following applies: Göttingen, minipig, plasma, topical or ocular; for AUC(0-t): read-out: AUC0-24; for Tmax: Median (Min-Max). The procedure: Male and female göttingen minipigs were dosed daily for a period of 28 days in a GLP toxicity study with DMVT-503 gel at 0.1%, 0.3%, and 0.6%. DMVT-503 concentrations were quantitated using a validated LC-MS/MS method and toxicokinetic parameters were calculated for all dosing groups, sexes, and sampling occasions. The systemic exposures observed in this study are supportive of the effective delivery of DMVT-503 into and through minipig skin by the gel formulations tested. Table 10 presents the summary as mean±SD on Days 1 and 28 following daily dermal application of DMVT-503 gel formulations at 0.1%, 0.3%, and 0.6% (2, 6, and 12 mg/kg/day, respectively).

In series [2] the test system is Human immortalized sebocytes. Kind of series: 14C-Acetate Sebocyte Lipid Accumulation Assay. It is filed as cell-based. The note with it: day 2, 16 hour treatment with 1 μM T0901317, then 1 μM insulin for 4 hours. The protocol:
This assay examines the ability of compounds to modulate the incorporation of label into de novo lipid synthesis. Cells were seeded in collagen 1-coated Scintiplates. Compounds were added in the presence of Liver X Receptor (LXR) agonist (T0901317) overnight. The medium was replaced with treatments and stimulated with 1 μM insulin for 4 hours in Labeling Medium containing 14C-acetate. Label incorporation was determined by washing the cells to removed excess label and allowing the cell layer to air dry before assessing labeling through Scintiplate counting normalized to Cell Titer Blue viability reagent.
Protocol—Day 1: Human immortalized sebocytes were seeded at 10,000 cells/well in a 96-well white, clear bottom collagen 1-coated Scintiplate in Sebocyte Growth Medium and allowed to attach overnight at 37° C. Day 2: Medium was refreshed by removing seeding medium and adding fresh Sebocyte Growth Medium. […] 3) Plates were read at Ex. 560 Em.590 with a cutoff of 570 nm for CTB signal. […] 5) 14C-acetate labeling was determined by scintillation counting in a MicroBeta TriLux Scintillation Counter.
Data analysis—Cell viability is presented as cell titer blue fluorescence reading (RFU) for each treatment. […] The percent of LXR agonist+Insulin-stimulated lipogenesis was calculated by taking the ratio of each CPM measure over the corresponding cell titer blue measure. […]

Setting [3] is: female, 2 mg/kg/day, Day 1, Female, 2 mg/kg/day, 0.1% gel.
Where [4] appears, read: female, 2 mg/kg/day, Day 28, Female, 2 mg/kg/day, 0.1% gel.
Where [5] appears, read: female, 6 mg/kg/day, Day 1, Female, 6 mg/kg/day, 0.3% gel.
Setting [6] is: female, 6 mg/kg/day, Day 28, Female, 6 mg/kg/day, 0.3% gel.
Setting [7] is: female, 12 mg/kg/day, Day 1, Female, 12 mg/kg/day, 0.6% gel.
Setting [8] is: female, 12 mg/kg/day, Day 28, Female, 12 mg/kg/day, 0.6% gel.
Setting [9] is: male, 2 mg/kg/day, Day 1, Male, 2 mg/kg/day, 0.1% gel.
Where [10] appears, read: male, 2 mg/kg/day, Day 28, Male, 2 mg/kg/day, 0.1% gel.
[11] abbreviates: male, 6 mg/kg/day, Day 1, Male, 6 mg/kg/day, 0.3% gel.
Where [12] appears, read: male, 6 mg/kg/day, Day 28, Male, 6 mg/kg/day, 0.3% gel.
Setting [13] is: male, 12 mg/kg/day, Day 1, Male, 12 mg/kg/day, 0.6% gel.
The mark [14] stands for this setting: male, 12 mg/kg/day, Day 28, Male, 12 mg/kg/day, 0.6% gel.

Consider `Cc1nc(C)c(-c2ccc([C@H]3CC[C@H](CC(=O)O)CC3)cc2)nc1C(N)=O` [DMVT-503, 2-((1R,4R)-4-(4-(6-carbamoyl-3,5-dimethylpyrazin-2-yl)phenyl)cyclohexyl)acetic acid], for which the Cmax in series [1] (setting [3]) stood at 37.3 ng/mL; in series [1] (setting [4]) it was 193 ng/mL; in series [1] (setting [5]) it was 210 ng/mL; in series [1] (setting [6]), 487 ng/mL; in series [1] (setting [7]) it was 171 ng/mL; in series [1] (setting [8]), 1370 ng/mL. The Cmax was found to be 35.1 ng/mL in series [1] (setting [9]); 19.6 ng/mL in series [1] (setting [10]); 53 ng/mL in series [1] (setting [11]); 940 ng/mL in series [1] (setting [12]); 103 ng/mL in series [1] (setting [13]); 1160 ng/mL in series [1] (setting [14]). Moreover, the AUC(0-t) turned out to be 323 ng·h/mL in series [1] (setting [3]); 3940 ng·h/mL in series [1] (setting [4]); 1750 ng·h/mL in series [1] (setting [5]); 8660 ng·h/mL in series [1] (setting [6]); 1490 ng·h/mL in series [1] (setting [7]); 25400 ng·h/mL in series [1] (setting [8]). In addition, the AUC(0-t) in series [1] (setting [9]) is 307 ng·h/mL; in series [1] (setting [10]) it was 3970 ng·h/mL; in series [1] (setting [11]) it was 478 ng·h/mL; in series [1] (setting [12]), 17500 ng·h/mL; in series [1] (setting [13]), 10500 ng·h/mL; in series [1] (setting [14]), 22300 ng·h/mL. For the same compound, the Tmax stood at 24 h in series [1] (setting [3]); 1 h in series [1] (setting [4]); 24 h in series [1] (setting [5]); 0 h in series [1] (setting [6]); 24 h in series [1] (setting [7]); 0 h in series [1] (setting [8]). Also, the Tmax in series [1] (setting [9]) stood at 24 h; in series [1] (setting [10]) it was 0 h; in series [1] (setting [11]) it was 24 h; in series [1] (setting [12]) it was 2 h; in series [1] (setting [13]) it was 24 h; in series [1] (setting [14]), 1 h. Further, the pIC50 in series [2] (Homo sapiens) was 7.30.

For `CC1=C(/C=C/C(C)=C/C=C/C(C)=C\C(=O)O)C(C)(C)CCC1` [Mix 13-cis-RA, 13-cis-retinoic Acid, reference compound], in series [2], the pIC50 is 6.48.
